Values of other authors, collected in patent publication US20210386111A1, “AEROSOLISABLE FORMULATION” (NICOVENTURES TRADING LIMITED, priority 2018, published 2021).

In the case of 2-hydroxy-propyl-β-cyclodextrin, the “solubility in water compared to base cyclodextrins such as β-cyclodextrin” value is listed as “increased solubility in water”.
